From PubChem BioAssay (NCI) come the findings set out here.

Holding throughout (assay): growth of human tumour cells (NCI), 48 h
Assay [1] relates to SK-MEL-5 melanoma.
Assay [2] relates to KM12 colon.
Assay [3] relates to SW-620 colon.
The subject of assay [4] is K-562 leukemia.
For assay [5], the system named is RPMI-8226 leukemia.
The subject of assay [6] is MALME-3M melanoma.
In assay [7] the test system is OVCAR-8 ovarian.
The subject of assay [8] is OVCAR-3 ovarian.
Assay [9] deals with SN12C renal.
For assay [10], the system named is UACC-62 melanoma.

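Cells were grown in 96-well plates and exposed to each compound for 48 hours at five concentrations; endpoints were interpolated linearly between bracketing concentrations, or set to the highest concentration if not reached. GI50: concentration for 50% inhibition of growth. TGI: concentration producing complete growth inhibition.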

As to `COC(=O)[C@H]1[C@@H](O)[C@@]2(O)c3c(OC)cc(O[C@@H]4O[C@@H]([C@H](O)CO)CO[C@H]4OC)cc3O[C@@]2(c2ccc(OC)cc2)[C@@H]1c1ccccc1`, the GI50 in assay [1] is 0.00662 µM; in [2] it was 0.00329 µM; in assay [3] it was 0.00605 µM; in assay [4], 0.00386 µM; in [5] it was 0.00314 µM; in assay [6], 0.00321 µM. The GI50 in assay [7] is 0.0193 µM; in assay [8], 0.00378 µM; in [9] it was 0.00359 µM; in assay [10], 0.00694 µM. For the same compound, the TGI is 0.0494 µM in assay [1]; 0.0333 µM in [2]; 0.186 µM in assay [3]; more than 1 µM in assay [4]; 0.0113 µM in assay [5]; 0.0259 µM in assay [6]. Besides, the TGI in assay [7] amounted to 0.136 µM; in assay [8], 0.035 µM; in [9], 0.0501 µM; in [10] it was 0.0322 µM.
With `CC(/C=C/C(=O)c1sc(-n2nc(-c3ccccc3)cc2-c2ccccc2)nc1C)=C\c1ccccc1`, the TGI in assay [1], in assay [2], in assay [3], in [4], in [5] and in assay [6] was more than 100 µM throughout. Further, the TGI in assay [7], in [8], in assay [9] and in [10] was more than 100 µM each time. In addition, the GI50 in assay [3] is more than 100 µM.
Consider `CC1CN(c2ccc(Cl)cc2)CC(C)(C)OC(=O)O1` (stereo not given), for which the TGI in assay [1], in [2], in [3], in assay [4], in [5] and in [6] was more than 100 µM each time. The TGI in [7], in assay [8], in assay [9] and in assay [10] was more than 100 µM throughout.
For the compound `O=C1Nc2cc(Cl)ccc2N=CC1NC(=O)C(c1ccccc1)c1ccccc1Cl` (stereo not given), the TGI in assay [1], in [2], in assay [3], in [4], in [5] and in assay [6] was more than 100 µM in each case. For the same compound, the TGI in assay [7], in assay [8], in assay [9] and in assay [10] was more than 100 µM in each case.
Consider `COCc1c(CO)cnc(C)c1OC1OC(CO)C(O)C(O)C1O` (stereo not given), for which the TGI in [1], in assay [2], in [3], in assay [4], in assay [5] and in assay [6] was more than 100 µM each time. Besides, the TGI in assay [7], in [8], in assay [9] and in assay [10] was more than 100 µM in each case.
As to `COc1ccccc1-c1cc(/C=C2\C(=O)Nc3ncc(Br)cc32)cc(Br)c1O`, the GI50 is 11.4 µM in assay [1]; 4.43 µM in [2]; 19.4 µM in assay [3]; 9.76 µM in assay [4]; 9.59 µM in assay [5]; 16.4 µM in assay [6]. The GI50 was more than 19.1 µM in assay [7], 9.51 µM in assay [8], 12.1 µM in assay [9] and 6.91 µM in assay [10]. Moreover, the TGI in assay [1], in assay [2], in [3], in assay [4], in assay [5] and in [6] was more than 25 µM in each case. Moreover, the TGI in [7], in assay [8], in assay [9] and in assay [10] was more than 25 µM throughout.
As for `CC1=C(C(=O)Nc2ccccc2C)C(c2ccc(C3C(C(=O)Nc4ccccc4C)=C(C)NC(C)=C3C(=O)Nc3ccccc3C)cc2)C(C(=O)Nc2ccccc2C)=C(C)N1`, the TGI amounted to 24.6 µM in assay [1]; 4.75 µM in assay [2]; 6.3 µM in assay [3]; 25.4 µM in [4]; 7.85 µM in assay [5]; 6.13 µM in assay [6]. Besides, the TGI is 8.57 µM in assay [7], 18.5 µM in assay [8], 2.85 µM in assay [9] and 4.65 µM in assay [10].
For the compound `COc1cccc(Cn2c(-c3nonc3N)nc3ccccc32)c1`, the GI50 was 0.375 µM in assay [1]; 0.515 µM in [2]; 0.372 µM in assay [3]; 0.355 µM in assay [4]; 0.377 µM in assay [5]; 0.425 µM in assay [6]. Besides, the GI50 was 0.61 µM in [7], 0.354 µM in assay [8], 0.751 µM in assay [9] and 0.493 µM in [10]. Besides, the TGI in assay [1] is more than 70.5 µM; in [2] it was more than 100 µM; in [3], more than 100 µM; in [4] it was more than 100 µM; in assay [5] it was more than 100 µM; in assay [6] it was more than 95.1 µM. Further, the TGI in assay [7] was more than 100 µM; in assay [8], 3.62 µM; in assay [9], more than 100 µM; in [10], more than 100 µM.
As to `C/C1=C/C(=O)O[C@@H]2C[C@@H](CC[C@H](C)/C=C\C=C\CC1)O[C@@](O)([C@@H]1CSC(=O)N1CO)C2`, the GI50 in assay [1] is 0.222 µM; in [2] it was 4.96 µM; in assay [3], 12.6 µM; in assay [4], 0.213 µM; in [5], 0.161 µM; in assay [6], 0.0962 µM. Further, the GI50 is 1.6 µM in [7], 0.122 µM in assay [8], 0.0485 µM in assay [9] and 0.0863 µM in [10]. The TGI was determined as 13.7 µM in assay [1]; 24.3 µM in assay [2]; 30 µM in [3]; 27.1 µM in [4]; 23.1 µM in [5]; 21 µM in assay [6]. The TGI in assay [7] is 74.6 µM; in assay [8], 0.512 µM; in [9], more than 57.4 µM; in assay [10] it was 26.2 µM.
In the case of `NC(=O)C1c2ccccc2C=Cc2ccccc21`, the GI50 in assay [1], in assay [2], in assay [3], in assay [4], in assay [5] and in assay [6] was more than 100 µM in each case. The GI50 in assay [7], in assay [8], in assay [9] and in assay [10] was more than 100 µM throughout. The TGI in assay [1], in assay [2], in assay [3], in assay [4], in assay [5] and in assay [6] was more than 100 µM in each case. Also, the TGI in [7], in assay [8], in assay [9] and in assay [10] was more than 100 µM throughout.
As for `CCOc1cc2ccc3c4cc(OC)c(OC)cc4cnc3c2cc1OCC`, the TGI in [1], in assay [2], in assay [3], in assay [4], in [5] and in assay [6] was more than 100 µM in each case. Also, the TGI in assay [7], in assay [8], in assay [9] and in assay [10] was more than 100 µM each time.
With `CNC(=O)c1c(NC(=O)c2ccc(C(F)(F)F)cc2)sc2c1CCC(=O)C2`, the GI50 was 1.11 µM in assay [1]; 0.668 µM in [2]; 0.235 µM in assay [3]; 0.193 µM in assay [4]; 0.272 µM in [5]; 1.11 µM in [6]. Further, the GI50 in assay [7] was 0.466 µM; in assay [8] it was 0.812 µM; in assay [9], 0.69 µM; in assay [10], 0.617 µM. Also, the TGI in [1] is 2.58 µM; in assay [2], 2.46 µM; in assay [3], 1.64 µM; in assay [5], 0.884 µM; in assay [6], 3.88 µM; in assay [7] it was more than 37.1 µM. Besides, the values for the TGI in assay [8], in assay [9] and in assay [10] were 3.29 µM, 24.1 µM and 2.23 µM, respectively.
As for `O=C(O)C1=C(C(=O)Nc2ccccc2)C2C=CC1C2` (stereo not given), the TGI in assay [1], in [2], in [3], in [4], in [5] and in [6] was more than 100 µM in each case. The TGI in assay [7], in assay [8], in [9] and in assay [10] was more than 100 µM throughout.
For the compound `C=C(C)[C@@H]1CC[C@]2(C(N)=O)CC[C@]3(C)[C@H](CC[C@@H]4[C@@]5(C)CC[C@H](O)C(C)(C)[C@@H]5CC[C@]43C)[C@@H]12`, the GI50 is 5.22 µM in assay [1]; 3.2 µM in assay [2]; 3.88 µM in [3]; 3.04 µM in assay [4]; 3.53 µM in [5]; 2.39 µM in [6]. Further, the GI50 is 3.12 µM in assay [7], 2.07 µM in assay [8], 3 µM in [9] and 4.2 µM in [10]. Besides, the TGI in [1] worked out at 19.2 µM; in assay [2], 11.9 µM; in assay [3], 26.1 µM; in assay [4] it was 19.4 µM; in assay [5] it was 24.9 µM; in [6], 8.15 µM. For the same compound, the TGI in [7] is more than 100 µM; in assay [8], 4.18 µM; in assay [9] it was 10.6 µM; in assay [10], 23.1 µM.
